Test results taken from patent US20160008493A1, “RADIOACTIVE SUBSTRATES FOR ALDEHYDE DEHYDROGENASE” (THE JOHNS HOPKINS UNIVERSITY, priority 2013, published 2016).

Assays:
ALDH [1] = molecular target: T1, ALDH (Mus musculus, UniProt P24549); experiment: In vitro radio uptake assay for ALDH activity, L1210/cpa cells; type: cell-based, murine; conditions: L1210/cpa (ALDH^hi) cells; 1 μCi, 37° C., 30 mins; radioactivity (CPM) by gamma counter; FIG. 1
T1 construct: was tested for specific uptake by ALDH-expressing cell lines (K562 and L1210/cpa); endogenous in cells; host or cells: L1210/cpa
T1 sequence (P24549 1-501): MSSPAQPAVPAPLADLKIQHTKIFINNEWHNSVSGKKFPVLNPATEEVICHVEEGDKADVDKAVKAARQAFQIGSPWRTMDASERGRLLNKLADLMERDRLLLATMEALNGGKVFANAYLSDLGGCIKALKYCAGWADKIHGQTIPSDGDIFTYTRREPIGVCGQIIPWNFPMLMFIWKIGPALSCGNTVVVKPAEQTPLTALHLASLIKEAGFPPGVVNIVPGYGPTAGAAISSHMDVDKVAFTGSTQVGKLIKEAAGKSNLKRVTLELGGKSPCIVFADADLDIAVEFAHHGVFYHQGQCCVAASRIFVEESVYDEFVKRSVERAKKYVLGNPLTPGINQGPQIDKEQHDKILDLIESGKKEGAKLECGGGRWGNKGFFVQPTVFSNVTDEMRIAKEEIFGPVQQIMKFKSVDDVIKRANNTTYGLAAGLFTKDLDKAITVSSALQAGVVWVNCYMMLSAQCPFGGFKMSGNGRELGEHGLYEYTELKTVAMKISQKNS
From the text: (§1) The K562 human chronic myelogenous leukemia cell line was purchased from American Type Culture Collection (CLL-243™) and maintained in suspension in IMDM media supplemented with 10% FBS. The murine leukemia cell line L1210 (ALDH^low) and L1210/cpa (ALDH^hi) were provided by Dr. Richard J. Jones (Johns Hopkins University) and maintained in suspension in RPMI 1640 supplemented with 10% FBS. Human glioma cell line, U87-tri was provided by Dr. John Laterra (Kennedy Krieger Institute) and maintained in DMEM media supplemented with 10% FBS. All cells were grown at 37° C. in a humidified incubator with 5% CO2.
(§2) ^125IBz-A-DA was dissolved in 100% DMSO at 10 mCi/50 μL concentration and stored at −20° C. as stock solutions. 25 μL of a stock was deprotected by mixing with the same volume of 2N HCl for 30 mins at room temperature and the resulting aldehyde (IBz-A) were neutralized by adding 350 μL of the assay buffer (PBS supplemented with 1% FBS and 50 μM Verapamil, Sigma V4629) and immediately used.
(§3) One million cells were resuspended in the assay buffer and 1 μCi of IBz-A (with or without 1000 fold cold competitor) was added to the cell. […] Cells were resuspended in the cold assay buffer ([…]) and stored in the ice until analyzed. Cells were washed twice with cold assay buffer and the radioactivity was measured by LKB Wallac gamma counter (1282 compugamma CS).

ALDH [2] = experiment: In vitro radio uptake assay for ALDH activity, K562 cells; type: cell-based, human; conditions: 1 μCi, 37° C., 30 mins, radioactivity (CPM) by gamma counter, FIG. 1
From the text: as §1, §2, §3

- increase of uptake compared with cells treated with DEAB (ALDH inhibitor) (ALDH [1]): more than 5 fold
Structure (SMILES): O=CCNC(=O)c1ccc([125I])cc1 [^125IBz-A]
- increase of uptake compared with cells treated with DEAB (ALDH inhibitor) (ALDH [2]): more than 5 fold
